In patent US20220390432A1, “METHODS OF CHARACTERIZING AND UTILIZING AGENT-CONDENSATE INTERACTIONS” (Whitehead Institute for Biomedical Research, priority 2019, published 2022):
“Also recorded” adds a separate entry of the source.

What was measured:
MED1 = biological target: T1, MED1 (Homo sapiens, UniProt Q15648); assay: In vitro droplet assay, small molecule partitioning into MED1 condensates; type: binding; settings: for partitioning / incorporation into MED1 droplets: confocal fluorescence, Example 2: 125 mM NaCl, 10% PEG, 10 μM protein, fluorescent or fluorescently labeled drug
T1 construct: MED1—amino acids 600-1581; 6xHis (N); made in house; host or cells: LOBSTR cells (E. coli)
T1 sequence (Q15648 600-1581): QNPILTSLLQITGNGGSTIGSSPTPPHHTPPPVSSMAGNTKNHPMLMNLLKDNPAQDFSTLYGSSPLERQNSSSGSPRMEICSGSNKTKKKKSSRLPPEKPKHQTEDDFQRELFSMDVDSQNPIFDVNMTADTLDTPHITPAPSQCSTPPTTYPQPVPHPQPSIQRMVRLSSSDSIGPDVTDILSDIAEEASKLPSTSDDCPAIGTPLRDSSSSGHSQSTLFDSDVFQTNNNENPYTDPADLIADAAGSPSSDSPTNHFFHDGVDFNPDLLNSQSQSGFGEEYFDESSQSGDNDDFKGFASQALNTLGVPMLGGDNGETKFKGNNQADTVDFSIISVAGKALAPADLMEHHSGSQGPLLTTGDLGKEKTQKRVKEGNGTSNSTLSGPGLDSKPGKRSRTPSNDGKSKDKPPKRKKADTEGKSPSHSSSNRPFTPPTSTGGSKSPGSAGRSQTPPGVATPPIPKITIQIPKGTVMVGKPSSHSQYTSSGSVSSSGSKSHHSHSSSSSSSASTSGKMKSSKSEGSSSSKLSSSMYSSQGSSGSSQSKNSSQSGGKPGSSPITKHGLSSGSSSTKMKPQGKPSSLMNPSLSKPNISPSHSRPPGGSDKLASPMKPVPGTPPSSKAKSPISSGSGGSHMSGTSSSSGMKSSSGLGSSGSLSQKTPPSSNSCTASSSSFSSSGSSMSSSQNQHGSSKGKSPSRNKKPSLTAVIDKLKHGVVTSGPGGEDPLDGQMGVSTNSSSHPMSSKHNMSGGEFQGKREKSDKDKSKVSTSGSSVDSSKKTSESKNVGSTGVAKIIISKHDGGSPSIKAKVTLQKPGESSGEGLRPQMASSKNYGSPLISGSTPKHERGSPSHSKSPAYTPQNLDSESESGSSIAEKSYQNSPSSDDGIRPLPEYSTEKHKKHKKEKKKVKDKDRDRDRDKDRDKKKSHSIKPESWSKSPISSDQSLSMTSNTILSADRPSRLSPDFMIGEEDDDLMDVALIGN
Method: (§1) Recombinant BFP, GFP, or mCherry fusion proteins were concentrated and desalted to an appropriate protein concentration and 125 mM NaCl using Amicon Ultra centrifugal filters (30K MWCO, Millipore). Recombinant protein was added too. […] The protein solution was immediately loaded onto glass bottom 384 well plate (Cellvis P384-1.5H-N) and imaged with an Andor confocal microscope with a 150× objective. Unless indicated, images presented are of droplets settled on the glass coverslip.
(§2) Drug and small molecule concentrations used in the droplet experiments are as follows:
To analyze in vitro droplet experiments, custom Python scripts using the scikit-image package were written to identify droplets and characterize their size, shape and intensity. Droplets were segmented from average images of captured channels on various criteria: (1) an intensity threshold that was three s.d. above the mean of the image; (2) size thresholds (20 pixel minimum droplet size); and (3) a minimum circularity (circularity=4π·areaperimeter2) (circularity=4π·areaperimeter2) of 0.8 (1 being a perfect circle). After segmentation, mean intensity for each droplet was calculated while excluding pixels near the phase interface, and background-corrected by subtracting intensity of dark images of droplet formation buffer only. Droplets identified in the channel of the fluorescent protein from ten independent fields of view were quantified for each experiment. The maximum intensity of signal within the droplets was calculated for each channel, the maximum intensity in the drug channel was termed “maximum drug intensity”. To obtain the intensity of drug or dye alone in the diffuse state (termed “diffuse drug intensity”), the compound was added to droplet formation buffer at same concentration used in the droplet assay. This was then imaged on a confocal fluorescent microscope. The resulting image was processed in FIJI to obtain the fluorescent intensity of the field. To obtain the fluorescent intensity of protein droplets that bleed through in the drug channel (termed “background intensity”) protein droplets were imaged in the fluorescent channel in which the drug fluoresces and processed as above to obtain the average maximum intensity within the droplet across 10 images. The enrichment ratio was obtained by the following formula [(maximum drug intensity)−(background intensity)]/(diffuse drug intensity). The box plots show the distributions of all droplets. Each dot represents an individual droplet.

HP1α = biological target: T2, HP1α (Homo sapiens, UniProt P45973); assay: In vitro droplet assay, small molecule partitioning into HP1α condensates; type: binding
T2 construct: HP1α—full length, amino acids 1-191; 6xHis (N); made in house; host or cells: LOBSTR cells (E. coli)
T2 sequence (P45973 whole entry, the tested form may be a part): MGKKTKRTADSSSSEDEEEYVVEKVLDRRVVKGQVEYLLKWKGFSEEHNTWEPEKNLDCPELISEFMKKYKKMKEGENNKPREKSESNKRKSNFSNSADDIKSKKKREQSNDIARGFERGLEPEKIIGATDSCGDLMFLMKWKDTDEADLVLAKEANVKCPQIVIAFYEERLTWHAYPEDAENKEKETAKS
Method: as §1, §2
(§3) To analyze in vitro droplet experiments, custom Python scripts using the scikit-image package were written to identify droplets and characterize their size, shape and intensity. […] After segmentation, mean intensity for each droplet was calculated while excluding pixels near the phase interface, and background-corrected by subtracting intensity of dark images of droplet formation buffer only. Droplets identified in the channel of the fluorescent protein from ten independent fields of view were quantified for each experiment. The maximum intensity of signal within the droplets was calculated for each channel, the maximum intensity in the drug channel was termed “maximum drug intensity”. […]

[1] = Droplet formation assay of small molecule alone without any protein; type: physicochemical; settings: without any protein added
Method: Recombinant BFP, GFP, or mCherry fusion proteins were concentrated and desalted to an appropriate protein concentration and 125 mM NaCl using Amicon Ultra centrifugal filters (30K MWCO, Millipore). […] […] The protein solution was immediately loaded onto glass bottom 384 well plate (Cellvis P384-1.5H-N) and imaged with an Andor confocal microscope with a 150× objective. Unless indicated, images presented are of droplets settled on the glass coverslip.

[2] = system: MED1 condensate at the LAC array in U2OS cells; assay: LAC binding assay, FLTX1 enrichment at tethered MED1 or HP1α; type: cell-based, human; settings: ESR1 not expressed, 1 uM FLTX1
Method: Constructs were assembled by NEB HIFI cloning in pSV2 mammalian expression vector containing an SV40 promoter driving expression of a mCherry-LacI fusion protein. The intrinsically disordered region of MED1, HP1α, or the activation domain of ESR1 was fused by the c-terminus to this recombinant protein, joined by the linker sequence […] (SEQ ID NO: 16). For experiments comparing FLTX1 enrichment at the array, U20S-Lac cells were plated onto chambered coverglass (1.5 Borosilicate Glass, Nunc Lab-Tek, 155409) and transfected with either MED1 IDR or HP1α constructs with lipofectamine 3000 (Thermofisher L3000015). After 24 hours, cells were treated with either 1 uM FLTX1 or vehicle (DMF). […]
For analysis of Lac array data comparing MED1 or HP1α tethered, a region of interest was called using the signal in the Lac array (561 channel). The average fluorescent signal for FLTX1 (488 channel) was then measured in the region of interest and divided by the average fluorescence in the region of interest at the Lac array. […] For analysis of Lac array data for MED1 overexpression, enrichment was calculated by dividing the average fluorescent signal for MED1 immunofluorescence at the region of interest, defined by the ER tethered at the lac array, by MED1 immunofluorescence signal at a random nuclear region.

[3] = system: MED1, BRD4, and POL2 condensates in HCT116 colon cancer cell lines; assay: Small molecule effects on transcriptional condensates in GFP-tagged HCT116 cells; type: cell-based, human; settings: for effect on transcriptional condensates: MED1-GFP, BRD4-GFP, POL2-GFP HCT116
Text: HCT116 colon cancer cell lines endogenously tagged with MED1-GFP, BRD4-GFP, POL2-GFP, or HP1a-GFP (Mock), all forming condensates in the nucleus.

BRD4 at super-enhancers = assay: Super-enhancers versus typical enhancers, gene expression and BRD4 genomic occupancy; type: cell-based
[4] = system: MED1 genomic occupancy in HCT116 cells; assay: MED1 ChIP-seq in HCT116 cells; type: cell-based, human; settings: JQ1 for 24 hours
[5] = system: platinated DNA at MYC locus in HCT116 cells; assay: Immunofluorescence with MYC DNA FISH after JQ1 then cisplatin; type: cell-based, human; settings: 1 μM JQ1 24 hours, then 50 μM cisplatin 6 hours
FIB1 = biological target: T3, FIB1 (Homo sapiens, UniProt P22087); assay: In vitro droplet assay, small molecule partitioning into FIB1 condensates; type: binding; settings: 125 mM NaCl, 10% PEG, 10 μM protein
T3 construct: FIB1—full length, amino acids 1-321; 6xHis (N); made in house; host or cells: LOBSTR cells (E. coli)
T3 sequence (P22087 whole entry, the tested form may be a part): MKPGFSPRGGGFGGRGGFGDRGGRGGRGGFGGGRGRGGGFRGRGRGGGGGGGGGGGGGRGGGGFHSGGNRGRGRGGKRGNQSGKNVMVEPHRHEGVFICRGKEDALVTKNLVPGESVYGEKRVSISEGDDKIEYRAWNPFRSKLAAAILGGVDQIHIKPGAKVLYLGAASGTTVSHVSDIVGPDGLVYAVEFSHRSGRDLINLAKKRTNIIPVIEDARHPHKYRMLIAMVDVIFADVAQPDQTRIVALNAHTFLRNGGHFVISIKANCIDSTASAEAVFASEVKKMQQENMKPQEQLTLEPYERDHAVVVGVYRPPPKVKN
Method: as §1, §2, §3

NPM1 = biological target: T4, NPM1 (Homo sapiens, UniProt P06748); assay: In vitro droplet assay, small molecule partitioning into NPM1 condensates; type: binding; settings: 125 mM NaCl, 10% PEG, 10 μM protein
T4 construct: NPM1—full length, amino acids 1-294; 6xHis (N); made in house; host or cells: LOBSTR cells (E. coli)
T4 sequence (P06748 whole entry, the tested form may be a part): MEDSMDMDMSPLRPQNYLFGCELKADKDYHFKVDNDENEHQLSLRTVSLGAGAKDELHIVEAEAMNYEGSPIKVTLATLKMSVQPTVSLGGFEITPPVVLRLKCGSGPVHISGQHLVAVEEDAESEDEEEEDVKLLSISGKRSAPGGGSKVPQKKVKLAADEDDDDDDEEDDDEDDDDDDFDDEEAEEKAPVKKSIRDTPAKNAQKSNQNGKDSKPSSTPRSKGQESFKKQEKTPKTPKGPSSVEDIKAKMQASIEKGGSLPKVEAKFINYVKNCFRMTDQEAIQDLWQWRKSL
Method: as §1, §2, §3

MED1 condensates = biological target: T5, MED1 condensates (Homo sapiens, UniProt Q15648); assay: Determination of partitioning by spectrophotometry and quantitative phase microscopy; type: binding; settings: uv spectroscopy of drug remaining in solution plus condensate volume estimate
T5 construct: MED1—amino acids 600-1581; 6xHis (N); made in house; host or cells: LOBSTR cells (E. coli)
T5 sequence (Q15648 600-1581): as the sequence (Q15648 600-1581) above
Text: Here, an expression is derived briefly for the partition coefficient of a client molecule into a condensed phase in terms of quantities that are readily measurable experimentally. A sample composed of two coexisting phases is considered, named dilute and condensed, with volume fractions ϕdilute and […]. If a client molecule (e.g. a drug) is also present in the sample at an average concentration of ctotal, then mass conservation requires that
the ratio is estimated ctotal/cdilute from fluorescence spectroscopy measurements, as described in a subsequent section, while ϕcond, it is inferred from the lever rule (M. Rubinstein, R. H. Colby, Polymer Phyics (Oxford University Press, 2003) as follows: denoting the concentration of scaffold protein (e.g. MED1) by s, mass conservation gives stotal=sdiluteϕdilute+scondϕcond, in analogy with Eq. 1. Again using the requirement that the volume fractions of coexisting phases sum to 1, this can be rearranged to yield
where stotal and sdilute are measured spectrophotometrically from optical absorbance at 280 nm, and scond is measured from quantitative phase microscopy, using a coherence-controlled holographic microscope (Q-Phase, Telight (formerly TESCAN), Bmo, CZ) equipped with 40× dry objectives (NA=0.90). […]
where A is the measured absorbance (in Absorbance Units (AU)), I0 is the intensity of the incident light at a given wavelength, I is the transmitted intensity, L the path length through the sample, and c the concentration of the absorbing species. […] The partitioned drug was measured by using spin down assay. […] The supernatant was collected and measured the concentrations of the drug. The partitioned drug was calculated by subtracting from the total known concentration of drug added.
Quantitative phase measurements were performed using a coherence-controlled holographic microscope (Q-Phase, Telight (formerly TESCAN), Brno, CZ) equipped with 40× dry objectives (NA=0.90) as follows. […]
Q-PHASE software was used to construct compensated phase images from acquired holograms, which were subsequently analyzed in MATLAB using custom code. […]

nucleolus = settings: references (35, 36); cited from earlier work

| SMILES | drug concentration in larger MED1 condensates (MED1; 20 μM (High) vs 5 μM (Low) MED1, 100 μM FLTX1) | partitioning / incorporation into MED1 droplets (MED1) | partitioning / incorporation into HP1α droplets (HP1α) | droplet formation of small molecule alone [1] | FLTX1 enrichment at MED1 condensate tethered to the LAC array [2] | effect on transcriptional condensates [3] | effect on transcriptional condensates, long exposure ([3]; long exposure (e.g., 24 hours)) | MED1 condensates after JQ1 ([3]; mEGFP-MED1 tagged HCT116 cells, JQ1 for 24 hours) | effect on transcriptional condensates, short exposure ([3]; short exposure (e.g., 5 minutes)) | BRD4 genomic occupancy, super-enhancers versus typical enhancers (BRD4 at super-enhancers) | sensitivity of gene expression by super-enhancers versus typical enhancers (BRD4 at super-enhancers) | MED1 ChIP-Seq at MYC after JQ1 [4] | platinated DNA at the MYC locus after JQ1 treatment [5] | partitioning into FIB1 condensates (FIB1) | partitioning into NPM1 condensates (NPM1) | partition ratio in MED1 condensates (MED1 condensates) | subcellular concentration (nucleolus) |
| --- | --- | --- | --- | --- | --- | --- | --- | --- | --- | --- | --- | --- | --- | --- | --- | --- | --- |
| CC/C(=C(\c1ccccc1)c1ccc(OCCN(C)c2ccc([N+](=O)[O-])c3nonc23)cc1)c1ccccc1 [FLTX1] | lower concentrations of the drug | concentrated preferentially in MED1 droplets; also recorded: incorporated into MED1 containing condensates; also recorded: incorporates into MED1 droplets | does not incorporate | diffuse fluorescent signal | concentrated FLTX1 at the site of the condensate; also recorded: concentrates in MED1 condensates in cells |  |  |  |  |  |  |  |  |  |  |  |  |
| Cc1sc2c(c1C)C(c1ccc(Cl)cc1)=N[C@@H](CC(=O)OC(C)(C)C)c1nnc(C)n1-2 [JQ1, (S)-tert-butyl 2-(4-(4-chlorophenyl)-2,3,9-trimethyl-6H-thieno[3,2-ƒ][1,2,4]triazolo[4,3-a][1,4]diazepin-6-yl)acetate] |  |  |  | diffuse fluorescent signal |  | reduces the number of, or eliminates | genomic release and consolidation of condensates | loss of MED1 condensates; also recorded: diminution of MED1 condensates | eviction of some condensate components | reduces BRD4 genomic occupancy in super-enhancers to a greater extent than typical enhancers | more sensitive | loss of MED1 loading | concomitant reduction in platinated DNA at the MYC oncogene; also recorded: loss of signal for platinated DNA |  |  |  |  |
| O=C1c2c(O)ccc(O)c2C(=O)c2c(NCCNCCO)ccc(NCCNCCO)c21 [Mitoxantrone] |  | concentrated; also recorded: immediately incorporate into MED1 droplets |  | diffuse fluorescent signal |  | global dissolution of condensates; also recorded: cause condensate dissolution |  |  |  |  |  |  |  | concentrated | concentrated | approximately 100 fold | concentrate in the nucleolus |
